Results as given in the NIST ThermoML archive (doi:10.1016/j.jct.2004.11.017).

Assay: xn = mol fraction of the nth substance listed
Conditions: 101 kPa, Liquid

CC[S+]([O-])CC [diethyl sulfoxide] + O
mass density [kg/m3]
Conditions | 298.15 K | 303.15 K | 308.15 K | 313.15 K | 318.15 K | 323.15 K | 328.15 K | 333.15 K | 338.15 K | 343.15 K
x1 = 0.0997 | 1027.6 | 1024.2 | 1020.7 | 1017.1 | 1013.4 | 1009.6 | 1005.8 | 1001.8 | 997.8 | 993.7
x1 = 0.1996 | 1038.6 | 1034.2 | 1029.8 | 1025.4 | 1020.9 | 1016.3 | 1011.8 | 1005.9 | 1001.3 | 997.1
x1 = 0.2517 | 1038.4 | 1033.7 | 1029.6 | 1025 | 1020.5 | 1015.8 | 1011.2 | 1006.4 | 1001.7 | 996.9
x1 = 0.2978 | 1037.8 | 1033.3 | 1028.8 | 1024.2 | 1019.6 | 1015 | 1010.3 | 1005.6 | 1000.8 | 996
x1 = 0.3481 | 1035.8 | 1031.4 | 1026.8 | 1022.2 | 1017.6 | 1013 | 1008.3 | 1003.6 | 998.9 | 994.1
x1 = 0.3946 | 1034.7 | 1030.2 | 1025.7 | 1021.2 | 1016.6 | 1012 | 1007.3 | 1002.6 | 997.8 | 993
x1 = 0.4496 | 1031.6 | 1027.2 | 1022.7 | 1018.3 | 1013.8 | 1009.2 | 1004.5 | 999.9 | 995.2 | 990.5
x1 = 0.5053 | 1029.6 | 1025.1 | 1020.6 | 1016.2 | 1011.7 | 1007.1 | 1002.5 | 997.9 | 993.2 | 988.5
x1 = 0.5962 | 1026.4 | 1022.1 | 1017.6 | 1013.2 | 1008.7 | 1004.2 | 999.6 | 995 | 990.4 | 985.7
x1 = 0.6971 | 1021.9 | 1017.5 | 1013.1 | 1008.7 | 1004.3 | 999.8 | 995.3 | 990.8 | 986.2 | 981.7
x1 = 0.8061 | 1018.2 | 1013.9 | 1009.6 | 1005.2 | 1000.8 | 996.4 | 991.9 | 987.4 | 982.9 | 978.4
x1 = 0.8946 | 1015.3 | 1011 | 1006.7 | 1002.3 | 997.9 | 993.5 | 989.1 | 984.7 | 980.2 | 975.7
x1 = 1 | 1010.2 | 1005.8 | 1001.4 | 997 | 992.6 | 988.2 | 983.9 | 979.5 | 975.1 | 970.6
